Measured values taken from patent publication US8802597B2, “Herbicidal pyrimidines” (E I du Pont de Nemours and Company, priority 2003, dated 2014).

How the values were obtained:
Format in all cases: in vivo
[1] = test system: dallisgrass (Paspalum dilatatum); experiment: Test F pre/postemergence
Excerpt: (§1) Seeds or nutlets of plant species selected from (turf) bermudagrass (Cynodon dactylon), Kentucky bluegrass (Poa pratensis), bentgrass (Agrostis palustris), hard fescue (Festuca ovina), large crabgrass (Digitaria sanguinalis), goosegrass (Eleusine indica), dallisgrass (Paspalum dilatatum), annual bluegrass (Poa annua), common chickweed (Stellaria media), dandelion (Taraxacum officinale), white clover (Trifolium repens), and yellow nutsedge (Cyperus esculentus) were planted and treated preemergence with the test chemical formulated in a non-phytotoxic solvent mixture which included a surfactant.
(§2) At the same time, plants selected from these crop and weed species were treated with postemergence applications of the test chemical formulated in the same manner. Plants ranged in height from 2 to 18 cm (1- to 4-leaf stage) for postemergence treatments. Treated plants and controls were maintained in a greenhouse for 12 to 14 days, after which time all species were compared to controls and visually evaluated. Plant response ratings, summarized in Table F, are based on a scale of 0 to 100 where 0 is no effect and 100 is complete control. A dash (-) response means no test result.

[2] = test system: white clover (Trifolium repens); experiment: Test F pre/postemergence
Excerpt: as §1, §2

[3] = test system: annual bluegrass (Poa annua); experiment: Test F pre/postemergence
Excerpt: as §1, §2

[4] = test system: common chickweed (Stellaria media); experiment: Test F pre/postemergence
Excerpt: as §1, §2

[5] = test system: yellow nutsedge (Cyperus esculentus); experiment: Test F pre/postemergence
Excerpt: as §1, §2

[6] = test system: Canada thistle (Cirsium arvense); experiment: Test L field study, Compound 1 and nicosulfuron; conditions: Compound 1 125 g a.i./ha, approximately 56 days after treatment
Excerpt: (§3) This field study included treatments that consisted of Compound 1 and nicosulfuron alone and in combination on Canada thistle (Cirsium arvense) and daisy fleabane (Erigeron spp.). The plants ranged from 20 to 30 cm in height at the time of application during the month of May in the vicinity of Newark, Del. Compound 1 was formulated as a wettable powder containing 25% active ingredient by weight. Nicosulfuron was in the form of Accent® Herbicide, a water-dispersible granule formulation containing 75% active ingredient by weight. The formulations were dispersed in water in the sprayer tank before treatment. The treatments were made using a backpack sprayer calibrated to deliver 24 gallons per acre (224 L per hectare) to a 10 ft×30 ft (3 m×9 m) plot. Each treatment was replicated two times. The effects on the plants approximately 56 days after treatment were visually compared to untreated controls. Plant response ratings were calculated as the means of the two replicates, based on a scale of 0 to 100 where 0 is no effect and 100 is complete control. Colby's Equation was used to determine the herbicidal effects expected from the mixture.

[7] = test system: daisy fleabane (Erigeron spp.); experiment: Test L field study, Compound 1 and nicosulfuron; conditions: Compound 1 125 g a.i./ha, approximately 56 days after treatment
Excerpt: as §3

[8] = test system: wheat (TRZAW; Triticum aestivum); experiment: Test I mixtures of compound 9 with metsulfuron-methyl and chlorsulfuron-metsulfuron-methyl (5:1); conditions: applied alone
Excerpt: (§4) This test evaluated the effect of mixtures of compound 9 with metsulfuron-methyl and with a 5:1 by weight combination of chlorsulfuron and metsulfuron-methyl on several plant species. Seeds of test plants consisting of wheat (TRZAW; Triticum aestivum), wild buckwheat, (POLCO; Polygonum convolvulus), redroot pigweed (AMARE; Amaranthus retroflexus), wild mustard (SINAR; Sinapis arvensis), catchweed bedstraw (GALAP; Galium aparine), Russian thistle (SASKR; Salsola kali), common chickweed (STEME; Stellaria media), kochia (KCHSC; Kochia scoparia), and lambsquarters (CHEAL; Chenopodium album) were planted into a blend of loam soil and sand. Plants were grown in a greenhouse using supplemental lighting to maintain a photoperiod of about 14 hours; daytime and nighttime temperatures were about 23° C. and 16° C., respectively. Balanced fertilizer was applied through the watering system. The plants were grown for 10 to 23 days so that at time of treatment the plants ranged from 2- to 8-leaf stage. Treatments consisted of Compound 9, metsulfuron-methyl, and chlorsulfuron-metsulfuron-methyl (5:1) alone and in combination. The treatments were formulated in a non-phytotoxic solvent mixture which included a surfactant and applied as a foliage spray using a volume of 280-458 L/ha. Each treatment was replicated three times. […] Treated plants and controls were maintained in the greenhouse and watered as needed with care to not wet the foliage for the first 24 hours after treatment. The effects on the plants approximately 17 days after treatment were visually compared to untreated controls. Plant response ratings were calculated as the means of the three replicates, based on a scale of 0 to 100 where 0 is no effect and 100 is complete control. Colby's Equation was used to determine the herbicidal effects expected from the mixtures.

[9] = test system: redroot pigweed (AMARE; Amaranthus retroflexus); experiment: as above; conditions: applied alone
Excerpt: as §4

[10] = test system: kochia (KCHSC; Kochia scoparia); experiment: as above; conditions: applied alone
Excerpt: as §4

[11] = test system: lambsquarters (CHEAL; Chenopodium album); experiment: as above; conditions: applied alone
Excerpt: as §4

Compound: CCOC(=O)c1nc(C2CC2)nc(N)c1Br [Compound 1, ethyl 6-amino-5-bromo-2-cyclopropyl-4-pyrimidinecarboxylate]
- Plant response rating (0 to 100 scale) ([1]; Postemergence, 31 g ai/ha): 0
- Plant response rating (0 to 100 scale) ([1]; Postemergence, 62 g ai/ha): 0
- Plant response rating (0 to 100 scale) ([1]; Postemergence, 125 g ai/ha): 15
- Plant response rating (0 to 100 scale) ([1]; Postemergence, 250 g ai/ha): 75
- Plant response rating (0 to 100 scale) ([1]; Postemergence, 500 g ai/ha): 60
- Plant response rating (0 to 100 scale) ([1]; Preemergence, 31 g ai/ha): 10
- Plant response rating (0 to 100 scale) ([1]; Preemergence, 62 g ai/ha): 35
- Plant response rating (0 to 100 scale) ([1]; Preemergence, 125 g ai/ha): 45
- Plant response rating (0 to 100 scale) ([1]; Preemergence, 250 g ai/ha): 70
- Plant response rating (0 to 100 scale) ([1]; Preemergence, 500 g ai/ha): 95
- Plant response rating (0 to 100 scale) ([2]; Postemergence, 31 g ai/ha): 70
- Plant response rating (0 to 100 scale) ([2]; Postemergence, 62 g ai/ha): 90
- Plant response rating (0 to 100 scale) ([2]; Postemergence, 125 g ai/ha): 100
- Plant response rating (0 to 100 scale) ([2]; Postemergence, 250 g ai/ha): 100
- Plant response rating (0 to 100 scale) ([2]; Postemergence, 500 g ai/ha): 100
- Plant response rating (0 to 100 scale) ([2]; Preemergence, 31 g ai/ha): 80
- Plant response rating (0 to 100 scale) ([2]; Preemergence, 62 g ai/ha): 100
- Plant response rating (0 to 100 scale) ([2]; Preemergence, 125 g ai/ha): 100
- Plant response rating (0 to 100 scale) ([2]; Preemergence, 250 g ai/ha): 100
- Plant response rating (0 to 100 scale) ([2]; Preemergence, 500 g ai/ha): 100
- Plant response rating (0 to 100 scale) ([3]; Postemergence, 31 g ai/ha): 35
- Plant response rating (0 to 100 scale) ([3]; Postemergence, 125 g ai/ha): 45
- Plant response rating (0 to 100 scale) ([3]; Postemergence, 250 g ai/ha): 70
- Plant response rating (0 to 100 scale) ([3]; Postemergence, 500 g ai/ha): 95
- Plant response rating (0 to 100 scale) ([3]; Preemergence, 31 g ai/ha): 20
- Plant response rating (0 to 100 scale) ([3]; Preemergence, 62 g ai/ha): 65
- Plant response rating (0 to 100 scale) ([3]; Preemergence, 125 g ai/ha): 45
- Plant response rating (0 to 100 scale) ([3]; Preemergence, 250 g ai/ha): 70
- Plant response rating (0 to 100 scale) ([3]; Preemergence, 500 g ai/ha): 70
- Plant response rating (0 to 100 scale) ([4]; Postemergence, 31 g ai/ha): 0
- Plant response rating (0 to 100 scale) ([4]; Postemergence, 62 g ai/ha): 80
- Plant response rating (0 to 100 scale) ([4]; Postemergence, 125 g ai/ha): 85
- Plant response rating (0 to 100 scale) ([4]; Postemergence, 250 g ai/ha): 85
- Plant response rating (0 to 100 scale) ([4]; Postemergence, 500 g ai/ha): 100
- Plant response rating (0 to 100 scale) ([4]; Preemergence, 31 g ai/ha): 80
- Plant response rating (0 to 100 scale) ([4]; Preemergence, 62 g ai/ha): 100
- Plant response rating (0 to 100 scale) ([4]; Preemergence, 125 g ai/ha): 100
- Plant response rating (0 to 100 scale) ([4]; Preemergence, 250 g ai/ha): 100
- Plant response rating (0 to 100 scale) ([4]; Preemergence, 500 g ai/ha): 100
- Plant response rating (0 to 100 scale) ([5]; Postemergence, 31 g ai/ha): 0
- Plant response rating (0 to 100 scale) ([5]; Postemergence, 62 g ai/ha): 10
- Plant response rating (0 to 100 scale) ([5]; Postemergence, 125 g ai/ha): 10
- Plant response rating (0 to 100 scale) ([5]; Postemergence, 250 g ai/ha): 15
- Plant response rating (0 to 100 scale) ([5]; Postemergence, 500 g ai/ha): 15
- Plant response rating (0 to 100 scale) ([5]; Preemergence, 31 g ai/ha): 0
- Plant response rating (0 to 100 scale) ([5]; Preemergence, 62 g ai/ha): 15
- Plant response rating (0 to 100 scale) ([5]; Preemergence, 125 g ai/ha): 30
- Plant response rating (0 to 100 scale) ([5]; Preemergence, 250 g ai/ha): 25
- Plant response rating (0 to 100 scale) ([5]; Preemergence, 500 g ai/ha): 70
- Obsd. observed effect (0 to 100 scale) [6]: 73
- Obsd. observed effect (0 to 100 scale) [7]: 53

Compound: COC(=O)c1nc(C2CC2)nc(N)c1Cl [Compound 9, methyl 6-amino-5-chloro-2-cyclopropyl-4-pyrimidinecarboxylate]
- TRZAW Obsd. (observed effect) ([8]; Chlorsulfuron-Metsulfuron-Methyl series, 8 g a.i./ha): 30
- TRZAW Obsd. (observed effect) ([8]; Chlorsulfuron-Metsulfuron-Methyl series, 16 g a.i./ha): 43
- TRZAW Obsd. (observed effect) ([8]; Metsulfuron-Methyl series, 4 g a.i./ha): 8
- TRZAW Obsd. (observed effect) ([8]; Metsulfuron-Methyl series, 8 g a.i./ha): 12
- AMARE Obsd. (observed effect) ([9]; 4 g a.i./ha): 62
- AMARE Obsd. (observed effect) ([9]; 8 g a.i./ha): 70
- KCHSC Obsd. (observed effect) ([10]; 4 g a.i./ha): 70
- KCHSC Obsd. (observed effect) ([10]; 8 g a.i./ha): 87
- CHEAL Obsd. (observed effect) ([11]; 4 g a.i./ha): 45
- CHEAL Obsd. (observed effect) ([11]; 8 g a.i./ha): 83
